PMC9784689, “Bioactivity Profiling of In Silico Predicted Linear Toxins from the Ants Myrmica rubra and Myrmica ruginodis” (Toxins, 2022)
Where two headings read alike, the source gives them in different places. No end group written: not given here.

Columns and labels:
MDCK II cells = conditions: 48 h; for Cytotoxicity (cell viability), in words: MDCK II cells, 100 µM, 1% DMSO, CellTiter-Glo luminescence, triplicate; for Normalized data, cell viability: MDCK II, 100 µM peptides, CellTiter-Glo, normalized to DMSO control = 100% viability
[1] = test system: larvae of the greater wax moth (Galleria mellonella); assay: Insecticidal activity, injection into larvae; type: in vivo; conditions: G. mellonella larvae, 10 specimens; for Injected larvae surviving: injection of 5 µL of 10 mM stock in DMSO/water, at least 72 h
[2] = test system: Escherichia coli, Staphylococcus aureus, Staphylococcus epidermidis, Pseudomonas aeruginosa (strains 50071 and 1117), Micrococcus luteus, Listeria …; assay: Antibacterial activity, statements for the whole panel of seven strains; type: cell-based; conditions: 100 µM, after 48 h, MH II medium, 37 °C, OD600, triplicate
[3] = test system: Influenza A/Hessen/1/03 (H3N2) in MDCK II cells; type: cell-based, influenza A virus; conditions: 100 µM peptides, 48 h
[4] = test system: Influenza A/Hamburg/5/09 (H1N1) in MDCK II cells; type: cell-based, influenza A virus; conditions: 100 µM peptides, 48 h
[5] = test system: Influenza B/Malaysia/2506/04 (Victoria lineage) in MDCK II cells; type: cell-based, influenza B virus; conditions: B/Mal, 100 µM peptides, 48 h
[6] = test system: Influenza B/Massachusetts/71 (Yamagata lineage) in MDCK II cells; type: cell-based, influenza B virus; conditions: B/Mass, 100 µM peptides, 48 h
[7] = test system: Listeria monocytogenes (DSM 20600); conditions: L. monocytogenes, 100 µM, after 48 h, MH II medium, 37 °C, OD600 normalized to untreated bacteria, triplicate
[8] = test system: Escherichia coli DE3 (BL21(DE3)); conditions: at least 95% growth inhibition, nine log2 dilutions, triplicate, MH II, 48 h
Description: (§1) Cryo-conserved cultures (Table 3) were transferred with a sterile inoculation loop to tryptic soy agar (TSA) plates (Carl Roth) sealed with Parafilm (BEMIS, Neenah, WI, USA), and were incubated for 1–2 days at 37 °C depending on growth rates. Plates were then stored at 4 °C. For each of the three replicates, single colonies were picked with a sterile pipette tip, transferred into 2–3 mL Mueller-Hinton II (MH II) medium (BD, Heidelberg, Germany) and cultivated for ~24 h in unsealed 15 mL reaction tubes at 37 °C, shaking at 180 rpm. […] We measured the optical density at 600 nm (OD600) by transferring 1 mL of bacterial suspension to a polystyrene cuvette (SARSTED, Nümbrecht, Germany) in an Ultrospec 10 photometer (Biochrome, Cambridge, UK). […]
(§2) The experiments were carried out in 96-multiwell plates with a final volume of 100 µL per well (50 µL of bacterial suspension; 50 µL of testing peptide with a final concentration of 1.9% DMSO). […] The OD600 was measured after 0, 24, and 48 h using a BioTek Eon microplate reader and Gen5 v2.09. One experiment was carried out with automatic OD600 measurement every 20 min with a prior 30 s double orbital rotation at 237 rpm with overall incubation at 37 °C for 60 h in the microplate reader. […]

[9] = test system: Escherichia coli DE3 (BL21(DE3)); conditions: E. coli, 100 µM, after 48 h, MH II medium, 37 °C, OD600 normalized to untreated bacteria, triplicate
[10] = test system: Staphylococcus epidermidis (ATCC 35984; DSM 28319); type: cell-based; conditions: 20 µL per dilution from 48 h MIC experiments plated on TSA, n = 2
[11] = test system: Staphylococcus epidermidis (ATCC 35984; DSM 28319); conditions: S. epidermidis, 100 µM, after 48 h, MH II medium, 37 °C, OD600 normalized to untreated bacteria, triplicate
[12] = test system: Escherichia coli DE3 (BL21(DE3)); type: cell-based; conditions: 20 µL per dilution from 48 h MIC experiments plated on TSA, n = 2
[13] = test system: Micrococcus luteus (DSM 20030); type: cell-based; conditions: 20 µL per dilution from 48 h MIC experiments plated on TSA, n = 2
[14] = test system: Listeria monocytogenes (DSM 20600); type: cell-based; conditions: 20 µL per dilution from 48 h MIC experiments plated on TSA, n = 2
[15] = test system: Staphylococcus aureus (DSM 2569); conditions: S. aureus, 100 µM, after 48 h, MH II medium, 37 °C, OD600 normalized to untreated bacteria, triplicate
[16] = test system: Micrococcus luteus (DSM 20030); conditions: at least 95% growth inhibition, nine log2 dilutions, triplicate, MH II, 48 h
Description: as §1, §2

[17] = test system: Staphylococcus epidermidis (ATCC 35984; DSM 28319); conditions: at least 95% growth inhibition, nine log2 dilutions, triplicate, MH II, 48 h
Description: as §1, §2

[18] = test system: Micrococcus luteus (DSM 20030); conditions: M. luteus, 100 µM, after 48 h, MH II medium, 37 °C, OD600 normalized to untreated bacteria, triplicate
[19] = test system: Staphylococcus aureus (DSM 2569); conditions: at least 95% growth inhibition, nine log2 dilutions, triplicate, MH II, 48 h
Description: as §1, §2

Row | Compound | Inhibition of bacterial growth, in words [2] | Normalized to Aprotinin =1 (protection) ([3]; replicate 1) | Normalized to Aprotinin =1 (protection) ([3]; replicate 2) | Normalized to Aprotinin =1 (protection) ([3]; replicate 3) | Normalized to Aprotinin =1 (protection) ([4]; replicate 1) | Normalized to Aprotinin =1 (protection) ([4]; replicate 2) | Normalized to Aprotinin =1 (protection) ([4]; replicate 3) | Normalized to Aprotinin =1 (protection) ([5]; replicate 1) | Normalized to Aprotinin =1 (protection) ([5]; replicate 2) | Normalized to Aprotinin =1 (protection) ([5]; replicate 3) | Injected larvae surviving [1] [%] | Normalized to Aprotinin =1 (protection) ([6]; replicate 1) | Normalized to Aprotinin =1 (protection) ([6]; replicate 2) | Normalized to Aprotinin =1 (protection) ([6]; replicate 3) | further results
1 | C[C@H](CCC(=O)O)C[C@H](C)C[C@H](C)C(=O)/C=C(\O)[C@H](C)C[C@H](C)C/C=C/[C@@H](C)[C@@H](O)[C@@H](C)[C@@H](O)C[C@@H]1CC[C@@](C)([C@H]2CC[C@@](C)([C@@H](C)O)O2)O1 [Ionomycin, ionomycin, reference compound] | – | – | – | – | – | – | – | – | – | – | – | – | – | – | Cytotoxicity (cell viability), in words (MDCK II cells): high cytotoxicity; Normalized data, cell viability (MDCK II cells; replicate 1): 0.2057%; Normalized data, cell viability (MDCK II cells; replicate 2): 0.1877%; Normalized data, cell viability (MDCK II cells; replicate 3): 0.1629%
2 | CCO [ethanol, reference compound] | – | – | – | – | – | – | – | – | – | – | – | – | – | – | Larvae killed (mortality) ([1]; injection (peptides 5 µL of 10 mM stock; ethanol control 10 µL), 72 h): 70%
3 | IDPKVLESLL-NH2 (C-terminus assumed) [U-MYRTX-Mrug2b] | no significant inhibition of bacterial growth | 0.0328 | 0.05462 | 0.05537 | 0.05063 | 0.0441 | 0.04545 | 0.03893 | 0.02764 | 0.1043 | 80 | 0.01653 | 0.01885 | 0.02698 | –
4 | IDSDALKSLQ-NH2 (C-terminus assumed) [U-MYRTX-Mrub4a/Mrug7a] | no significant inhibition of bacterial growth | 0.05779 | 0.05634 | 0.06216 | 0.0395 | 0.05779 | 0.05022 | 0.06158 | 0.1088 | 0.1041 | 80 | 0.01827 | 0.02714 | 0.01553 | –
5 | INPKLLESL-NH2 (C-terminus assumed) [U-MYRTX-Mrug5b] | no significant inhibition of bacterial growth | 0.06533 | 0.04634 | 0.07887 | 0.02999 | 0.0228 | 0.007801 | 0.03907 | 0.06268 | 0.0833 | 80 | 0.0139 | 0.008064 | 0.0246 | –
6 | INPKLWLKLF-NH2 [U-MYRTX-Mrug5a] | – | – | – | – | – | – | – | – | – | – | – | – | – | – | Inhibition of growth [7]: 81%; MIC [8]: 50 µM; Inhibition of growth [9]: 97%; MBC [10]: 50 µM; Inhibition of growth [11]: 97%; MBC [12]: 50 µM; MBC [13]: 6.25 µM; MBC [14]: 50 µM; Cytotoxicity (cell viability), in words (MDCK II cells): negligible cytotoxicity; Inhibition of growth [15]: 96%; MIC [16]: 6.25 µM; MIC [17]: 50 µM; Inhibition of growth [18]: 89%; MIC [19]: 100 µM
7 | KDSDSLKSFQ-NH2 (C-terminus assumed) [U-MYRTX-Mrug6a] | no significant inhibition of bacterial growth | 0.08543 | 0.06156 | 0.07217 | 0.02785 | 0.0161 | 0.02305 | 0.0613 | 0.07745 | 0.114 | – | 0.007926 | 0.0129 | 0.01821 | –
